Measured values: patent US9833497B2, “Human originated EGF domain proteins and use of the same” (CHENGDU SOURCEBIO LIMITED-LIABILITY COMPANY, priority 2013, dated 2017)

Legend:
Assay type in all cases: cell-based
[1] = system: E. coli DH5α; test: Antibacterial activity: MIC and growth curve against E. coli DH5α in 96-well plate; conditions: minimal inhibitory concentration against E. coli DH5α; 96-well plate, 5×10^5 CFU/mL, 37° C., judged after 8 h
In short: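 MIC taken as lowest protein level with no bacterial growth, tracked by A600 every 30 min during 37 °C, 175 rpm culture. Two-fold protein series 50-12.5 μg/mL final, triplicate wells, against 5×10^5 CFU/mL of LB-washed mid-log cells.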

[2] = system: E. coli BL21; test: MIC against Gram-negative bacteria: E. coli BL21; conditions: for MIC: 10 h cultivation at 37° C.
In short: (§1)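 Bacteria grown in LB at 37° C with shaking to McFarland 0.5, pelleted and resuspended in fresh LB, then seeded at 5×10^5 CFU/mL per well. Purified recombinant human EGF domain proteins were two-fold serially diluted in triplicate and plates shaken at 37° C, 175 rpm. MIC is the lowest protein concentration with no bacterial growth.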

[3] = system: Pseudomonas aeruginosa; test: MIC against Gram-negative bacteria: Pseudomonas aeruginosa; conditions: for MIC: P. aeruginosa, 10 h cultivation at 37° C.
In short: as §1

[4] = system: Klebsiella pneumonia; test: MIC against Gram-negative bacteria: Klebsiella pneumonia; conditions: for MIC: K. pneumonia, 10 h cultivation at 37° C.
In short: as §1

[5] = system: Enterobacter cloacae; test: MIC against Gram-negative bacteria: Enterobacter cloacae; conditions: for MIC: E. cloacae, 10 h cultivation at 37° C.
In short: as §1

[6] = system: Aeromonas hydrophila; test: MIC against Gram-negative bacteria: Aeromonas hydrophila; conditions: for MIC: A. hydrophila, 10 h cultivation at 37° C.
In short: as §1

[7] = system: Citrobacter diversus; test: MIC against Gram-negative bacteria: Citrobacter diversus; conditions: for MIC: C. diversus, 10 h cultivation at 37° C.
In short: as §1

[8] = system: Moraxella catarrhalis; test: MIC against Gram-negative bacteria: Moraxella catarrhalis; conditions: for MIC: M. catarrhalis, 10 h cultivation at 37° C.
In short: as §1

[9] = system: Proteus mirabilis; test: MIC against Gram-negative bacteria: Proteus mirabilis; conditions: for MIC: P. mirabilis, 10 h cultivation at 37° C.
In short: as §1

[10] = system: Proteus vulgaris; test: MIC against Gram-negative bacteria: Proteus vulgaris; conditions: for MIC: P. vulgaris, 10 h cultivation at 37° C.
In short: as §1

[11] = system: Serratia marcescens; test: MIC against Gram-negative bacteria: Serratia marcescens; conditions: for MIC: S. marcescens, 10 h cultivation at 37° C.
In short: as §1

[12] = 96-well plate, 5×10^5 CFU/mL, 37° C., 10 h

## PRT302 (DIDECVEEPEICALGTCSNTEGSFKCLCPEGFSLSSSGRRCQ; listed as Homo sapiens)
[1]
  MIC: 12.5 µg/mL
[2]; E. coli BL21, 5×10^5 CFU/mL
  MIC: 25 µg/mL
[3]; 5×10^5 CFU/mL
  MIC: 12.5 µg/mL
[4]; 5×10^5 CFU/mL
  MIC: 25 µg/mL
[5]; 5×10^5 CFU/mL
  MIC: 12.5 µg/mL
[6]; 5×10^5 CFU/mL
  MIC: 12.5 µg/mL
[7]; 5×10^5 CFU/mL
  MIC: 12.5 µg/mL
[8]; 5×10^5 CFU/mL
  MIC: 12.5 µg/mL
[9]; 5×10^5 CFU/mL
  MIC: 12.5 µg/mL
[10]; 5×10^5 CFU/mL
  MIC: 50 µg/mL
[11]; 5×10^5 CFU/mL
  MIC: 12.5 µg/mL

## PRT698 (DVDECARSPPPCTYGRCENTEGSFQCVCPMGFQPNTAGSECE; listed as Homo sapiens)
[1]
  MIC: 50 µg/mL
[2]; [12]
  MIC E. coli BL21: 25 µg/mL
[3]; [12]
  MIC P. aeruginosa: 12.5 µg/mL
[4]; [12]
  MIC K. pneumonia: 50 µg/mL
[5]; [12]
  MIC E. cloacae: 25 µg/mL
[6]; [12]
  MIC A. hydrophila: 12.5 µg/mL
[7]; [12]
  MIC C. diversus: 25 µg/mL
[8]; [12]
  MIC M. catarrhalis: 50 µg/mL
[9]; [12]
  MIC P. mirabilis: 25 µg/mL
[10]; [12]
  MIC P. vulgaris: 25 µg/mL
[11]; [12]
  MIC S. marcescens: 12.5 µg/mL

## PRT1001 (EMTACHSGPCLNGGSCNPSPGGYYCTCPPSHTGPQCQ; listed as Homo sapiens)
[1]
  MIC: 12.5 µg/mL
[2]; E. coli BL21
  MIC: 50 µg/mL
[3]
  MIC: 12.5 µg/mL
[4]
  MIC: 50 µg/mL
[5]
  MIC: 25 µg/mL
[6]
  MIC: 12.5 µg/mL
[7]
  MIC: 50 µg/mL
[8]
  MIC: 25 µg/mL
[9]
  MIC: 12.5 µg/mL
[10]
  MIC: 25 µg/mL
[11]
  MIC: 50 µg/mL

## PRT98 (DINECATPSKVSCGKFSDCWNTEGSYDCVCSPGYEPVSGAKTFKNESENTCQ; listed as Homo sapiens)
[1]
  MIC: 12.5 µg/mL
[2]; E. coli BL21, 96-well plate, 5×10^5 CFU/mL, 37° C., 10 h
  MIC (μg/mL) E. coli BL21: 50 µg/mL
[3]; Pseudomonas aeruginosa, 96-well plate, 5×10^5 CFU/mL, 37° C., 10 h
  MIC (μg/mL) P. aeruginosa: 25 µg/mL
[4]; Klebsiella pneumonia, 96-well plate, 5×10^5 CFU/mL, 37° C., 10 h
  MIC (μg/mL) K. pneumonia: 12.5 µg/mL
[5]; Enterobacter cloacae, 96-well plate, 5×10^5 CFU/mL, 37° C., 10 h
  MIC (μg/mL) E. cloacae: 25 µg/mL
[6]; Aeromonas hydrophila, 96-well plate, 5×10^5 CFU/mL, 37° C., 10 h
  MIC (μg/mL) A. hydrophila: 50 µg/mL
[7]; Citrobacter diversus, 96-well plate, 5×10^5 CFU/mL, 37° C., 10 h
  MIC (μg/mL) C. diversus: 25 µg/mL
[8]; Moraxella catarrhalis, 96-well plate, 5×10^5 CFU/mL, 37° C., 10 h
  MIC (μg/mL) M. catarrhalis: 100 µg/mL
[9]; Proteus mirabilis, 96-well plate, 5×10^5 CFU/mL, 37° C., 10 h
  MIC (μg/mL) P. mirabilis: 50 µg/mL
[10]; Proteus vulgaris, 96-well plate, 5×10^5 CFU/mL, 37° C., 10 h
  MIC (μg/mL) P. vulgaris: 12.5 µg/mL
[11]; Serratia marcescens, 96-well plate, 5×10^5 CFU/mL, 37° C., 10 h
  MIC (μg/mL) S. marcescens: 50 µg/mL

## PRT417 (DVNECQRYPGRLCGHKCENTLGSYLCSCSVGFRLSVDGRSCE; listed as Homo sapiens)
[1]
  MIC: 25 µg/mL
[2]; E. coli BL21, 5×10^5 CFU/mL
  MIC: 50 µg/mL
[3]; 5×10^5 CFU/mL
  MIC: 25 µg/mL
[4]; 5×10^5 CFU/mL
  MIC: 12.5 µg/mL
[5]; 5×10^5 CFU/mL
  MIC: 25 µg/mL
[6]; 5×10^5 CFU/mL
  MIC: 12.5 µg/mL
[7]; 5×10^5 CFU/mL
  MIC: 25 µg/mL
[8]; 5×10^5 CFU/mL
  MIC: 12.5 µg/mL
[9]; 5×10^5 CFU/mL
  MIC: 12.5 µg/mL
[10]; 5×10^5 CFU/mL
  MIC: 12.5 µg/mL
[11]; 5×10^5 CFU/mL
  MIC: 12.5 µg/mL

## PRT518 (CACPLNIPSNNFSPTCHLDRSLGLICDGCPVGYTGPRCERCAEGYFGQPSVPGGSCQP; listed as Homo sapiens)
[1]
  MIC: 50 µg/mL
[2]; [12]
  MIC against E. coli BL21: 25 µg/mL
[3]; [12]
  MIC against P. aeruginosa: 12.5 µg/mL
[4]; [12]
  MIC against K. pneumonia: 25 µg/mL
[5]; [12]
  MIC against E. cloacae: 50 µg/mL
[6]; [12]
  MIC against A. hydrophila: 25 µg/mL
[7]; [12]
  MIC against C. diversus: 12.5 µg/mL
[8]; [12]
  MIC against M. catarrhalis: 25 µg/mL
[9]; [12]
  MIC against P. mirabilis: 12.5 µg/mL
[10]; [12]
  MIC against P. vulgaris: 25 µg/mL
[11]; [12]
  MIC against S. marcescens: 12.5 µg/mL
